Data taken from ChEMBL document CHEMBL4257449, “New N-(2-phenyl-4-oxo-1,3-thiazolidin-3-yl)-1,2-benzothiazole-3-carboxamides and acetamides as antimicrobial agents” (2017).
In brackets after ≈: the same amount, converted by molar mass.

Assays:
Aspergillus versicolor [1] = experiment: Antifungal activity against Aspergillus versicolor ATCC 11730 after 72 hrs by serial dilution method; type: functional; settings: ATCC 11730, 72 h
Aspergillus ochraceus [2] = experiment: Fungicidal activity against Aspergillus ochraceus ATCC 12066 incubated for 72 hrs followed by serial sub-cultivation for 72 hrs and measured after 72 hrs by serial dilution method; type: functional
Pseudomonas aeruginosa [3] = experiment: Bactericidal activity against Pseudomonas aeruginosa ATCC 27853 incubated for 24 hrs followed by serial sub-cultivation and measured after 24 hrs by microdilution method; type: functional
Salmonella typhimurium [4] = experiment: Antibacterial activity against Salmonella typhimurium ATCC 13311 after 24 hrs by microdilution method; type: functional, Salmonella enterica subsp. enterica serovar Typhimurium; settings: Salmonella enterica, ATCC 13311, 24 h
Micrococcus flavus [5] = experiment: Bactericidal activity against Micrococcus flavus ATCC 10240 incubated for 24 hrs followed by serial sub-cultivation and measured after 24 hrs by microdilution method; type: functional
Aspergillus ochraceus [6] = experiment: Antifungal activity against Aspergillus ochraceus ATCC 12066 after 72 hrs by serial dilution method; type: functional; settings: ATCC 12066, 72 h
Aspergillus fumigatus [7] = experiment: Fungicidal activity against Aspergillus fumigatus incubated for 72 hrs followed by serial sub-cultivation for 72 hrs and measured after 72 hrs by serial dilution method; type: functional
Enterobacter cloacae [8] = experiment: Bactericidal activity against Enterobacter cloacae incubated for 24 hrs followed by serial sub-cultivation and measured after 24 hrs by microdilution method; type: functional
Candida albicans [9] = experiment: Antifungal activity against Candida albicans after 72 hrs by serial dilution method; type: functional
Pseudomonas aeruginosa [10] = experiment: Antibacterial activity against Pseudomonas aeruginosa ATCC 27853 after 24 hrs by microdilution method; type: functional; settings: ATCC 27853, 24 h
Penicillium ochrochloron [11] = experiment: Antifungal activity against Penicillium ochrochloron ATCC 9112 after 72 hrs by serial dilution method; type: functional; settings: ATCC 9112, 72 h
Salmonella typhimurium [12] = experiment: Bactericidal activity against Salmonella typhimurium ATCC 13311 incubated for 24 hrs followed by serial sub-cultivation and measured after 24 hrs by microdilution method; type: functional, Salmonella enterica subsp. enterica serovar Typhimurium
Trichoderma viride [13] = experiment: Fungicidal activity against Trichoderma viride IAM 5061 incubated for 72 hrs followed by serial sub-cultivation for 72 hrs and measured after 72 hrs by serial dilution method; type: functional
Aspergillus fumigatus [14] = experiment: Antifungal activity against Aspergillus fumigatus after 72 hrs by serial dilution method; type: functional
Listeria monocytogenes [15] = experiment: Bactericidal activity against Listeria monocytogenes NCTC 7973 incubated for 24 hrs followed by serial sub-cultivation and measured after 24 hrs by microdilution method; type: functional
Escherichia coli [16] = experiment: Bactericidal activity against Escherichia coli ATCC 35210 incubated for 24 hrs followed by serial sub-cultivation and measured after 24 hrs by microdilution method; type: functional
Talaromyces funiculosus [17] = experiment: Antifungal activity against Penicillium funiculosum ATCC 36839 after 72 hrs by serial dilution method; type: functional; settings: ATCC 36839, 72 h
Candida albicans [18] = experiment: Fungicidal activity against Candida albicans incubated for 72 hrs followed by serial sub-cultivation for 72 hrs and measured after 72 hrs by serial dilution method; type: functional
Micrococcus flavus [19] = experiment: Antibacterial activity against Micrococcus flavus ATCC 10240 after 24 hrs by microdilution method; type: functional; settings: ATCC 10240, 24 h
Talaromyces funiculosus [20] = experiment: Fungicidal activity against Penicillium funiculosum ATCC 36839 incubated for 72 hrs followed by serial sub-cultivation for 72 hrs and measured after 72 hrs by serial dilution method; type: functional
Bacillus cereus [21] = experiment: Antibacterial activity against Bacillus cereus after 24 hrs by microdilution method; type: functional
Staphylococcus aureus [22] = experiment: Antibacterial activity against Staphylococcus aureus ATCC 6538 after 24 hrs by microdilution method; type: functional; settings: ATCC 6538, 24 h
Staphylococcus aureus [23] = experiment: Bactericidal activity against Staphylococcus aureus ATCC 6538 incubated for 24 hrs followed by serial sub-cultivation and measured after 24 hrs by microdilution method; type: functional
Aspergillus versicolor [24] = experiment: Fungicidal activity against Aspergillus versicolor ATCC 11730 incubated for 72 hrs followed by serial sub-cultivation for 72 hrs and measured after 72 hrs by serial dilution method; type: functional
Enterobacter cloacae [25] = experiment: Antibacterial activity against Enterobacter cloacae after 24 hrs by microdilution method; type: functional
Penicillium ochrochloron [26] = experiment: Fungicidal activity against Penicillium ochrochloron ATCC 9112 incubated for 72 hrs followed by serial sub-cultivation for 72 hrs and measured after 72 hrs by serial dilution method; type: functional
Aspergillus niger [27] = experiment: Fungicidal activity against Aspergillus niger ATCC 6275 incubated for 72 hrs followed by serial sub-cultivation for 72 hrs and measured after 72 hrs by serial dilution method; type: functional
Escherichia coli [28] = experiment: Antibacterial activity against Escherichia coli ATCC 35210 after 24 hrs by microdilution method; type: functional; settings: ATCC 35210, 24 h
Aspergillus niger [29] = experiment: Antifungal activity against Aspergillus niger ATCC 6275 after 72 hrs by serial dilution method; type: functional; settings: ATCC 6275, 72 h
Trichoderma viride [30] = experiment: Antifungal activity against Trichoderma viride IAM 5061 after 72 hrs by serial dilution method; type: functional; settings: IAM 5061, 72 h
Bacillus cereus [31] = experiment: Bactericidal activity against Bacillus cereus incubated for 24 hrs followed by serial sub-cultivation and measured after 24 hrs by microdilution method; type: functional
Listeria monocytogenes [32] = experiment: Antibacterial activity against Listeria monocytogenes NCTC 7973 after 24 hrs by microdilution method; type: functional; settings: NCTC 7973, 24 h

| Structure (SMILES) | MIC (Aspergillus versicolor [1]) | MFC99.5 (Aspergillus ochraceus [2]) | MBC99.5 (Pseudomonas aeruginosa [3]) | MIC (Salmonella typhimurium [4]) | MBC99.5 (Micrococcus flavus [5]) | MIC (Aspergillus ochraceus [6]) | MFC99.5 (Aspergillus fumigatus [7]) | MBC99.5 (Enterobacter cloacae [8]) | MIC (Candida albicans [9]) | MIC (Pseudomonas aeruginosa [10]) | MIC (Penicillium ochrochloron [11]) | MBC99.5 (Salmonella typhimurium [12]) | MFC99.5 (Trichoderma viride [13]) | MIC (Aspergillus fumigatus [14]) | MBC99.5 (Listeria monocytogenes [15]) | MBC99.5 (Escherichia coli [16]) | MIC (Talaromyces funiculosus [17]) | MFC99.5 (Candida albicans [18]) | MIC (Micrococcus flavus [19]) | MFC99.5 (Talaromyces funiculosus [20]) | other results |
| --- | --- | --- | --- | --- | --- | --- | --- | --- | --- | --- | --- | --- | --- | --- | --- | --- | --- | --- | --- | --- | --- |
| O=C(Cc1nsc2ccccc12)NN1C(=O)CSC1c1ccccc1 (centres undefined) | 216 µM (≈ 79.8 µg/mL) | 10.8 ×10⁻² umol/ml | 40.5 ×10⁻² umol/ml | 216 µM (≈ 79.8 µg/mL) | 40.5 ×10⁻² umol/ml | 54 µM (≈ 20 µg/mL) | 40.5 ×10⁻² umol/ml | 21.4 ×10⁻² umol/ml | 216 µM (≈ 79.8 µg/mL) | 216 µM (≈ 79.8 µg/mL) | 162 µM (≈ 59.9 µg/mL) | 40.5 ×10⁻² umol/ml | 10.8 ×10⁻² umol/ml | 108 µM (≈ 39.9 µg/mL) | 40.5 ×10⁻² umol/ml | 40.5 ×10⁻² umol/ml | 216 µM (≈ 79.8 µg/mL) | 40.5 ×10⁻² umol/ml | 297 µM (≈ 110 µg/mL) | 21.6 ×10⁻² umol/ml | MIC (Bacillus cereus [21]): 216 µM (≈ 79.8 µg/mL); MIC (Staphylococcus aureus [22]): 216 µM (≈ 79.8 µg/mL); MBC99.5 (Staphylococcus aureus [23]): 40.5 ×10⁻² umol/ml; MFC99.5 (Aspergillus versicolor [24]): 40.5 ×10⁻² umol/ml; MIC (Enterobacter cloacae [25]): 108 µM (≈ 39.9 µg/mL); MFC99.5 (Penicillium ochrochloron [26]): 21.6 ×10⁻² umol/ml; MFC99.5 (Aspergillus niger [27]): 21.6 ×10⁻² umol/ml; MIC (Escherichia coli [28]): 216 µM (≈ 79.8 µg/mL); MIC (Aspergillus niger [29]): 162 µM (≈ 59.9 µg/mL); MIC (Trichoderma viride [30]): 54 µM (≈ 20 µg/mL); MBC99.5 (Bacillus cereus [31]): 40.5 ×10⁻² umol/ml; MIC (Listeria monocytogenes [32]): 216 µM (≈ 79.8 µg/mL) |
| O=C(NN1C(=O)CSC1c1ccccc1)c1nsc2ccccc12 (centres undefined) | 225 µM (≈ 80 µg/mL) | 5.6 ×10⁻² umol/ml | 42.2 ×10⁻² umol/ml | 225 µM (≈ 80 µg/mL) | 42.2 ×10⁻² umol/ml | 28 µM (≈ 9.95 µg/mL) | 22.5 ×10⁻² umol/ml | 22.5 ×10⁻² umol/ml | 253 µM (≈ 89.9 µg/mL) | 225 µM (≈ 80 µg/mL) | 112 µM (≈ 39.8 µg/mL) | 42.2 ×10⁻² umol/ml | 11.2 ×10⁻² umol/ml | 112 µM (≈ 39.8 µg/mL) | 42.2 ×10⁻² umol/ml | 22.5 ×10⁻² umol/ml | 225 µM (≈ 80 µg/mL) | 42.2 ×10⁻² umol/ml | 225 µM (≈ 80 µg/mL) | 42.2 ×10⁻² umol/ml | MIC (Bacillus cereus [21]): 225 µM (≈ 80 µg/mL); MIC (Staphylococcus aureus [22]): 225 µM (≈ 80 µg/mL); MBC99.5 (Staphylococcus aureus [23]): 42.2 ×10⁻² umol/ml; MFC99.5 (Aspergillus versicolor [24]): 42.2 ×10⁻² umol/ml; MIC (Enterobacter cloacae [25]): 112 µM (≈ 39.8 µg/mL); MFC99.5 (Penicillium ochrochloron [26]): 22.5 ×10⁻² umol/ml; MFC99.5 (Aspergillus niger [27]): 22.5 ×10⁻² umol/ml; MIC (Escherichia coli [28]): 112 µM (≈ 39.8 µg/mL); MIC (Aspergillus niger [29]): 112 µM (≈ 39.8 µg/mL); MIC (Trichoderma viride [30]): 56 µM (≈ 19.9 µg/mL); MBC99.5 (Bacillus cereus [31]): 42.2 ×10⁻² umol/ml; MIC (Listeria monocytogenes [32]): 225 µM (≈ 80 µg/mL) |
